Source: patent US8158621B2, “Methods of treating or preventing autoimmune diseases with 2,4-pyrimidinediamine compounds” (Rigel Pharmaceuticals, Inc., priority 2002, dated 2012)
Read-outs that look alike come from different tables or passages of the source.

Tests used:
Syk kinase = molecular target: T1, Syk kinase (Homo sapiens, UniProt P43405); assay: Syk kinase biochemical fluorescence polarization assay; details: isolated Syk kinase; for IC50: fluorescence polarization, 4 uM ATP
T1 construct: purchased Upstate, Lake Placid NY

[1] = tested on: Human Jurkat T-cells (clone N); assay: Jurkat T-cell activation (anti-TCR, CD69 upregulation); format: cell-based
Outline: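 Readout is CD69 upregulation by flow cytometry (anti-CD69-APC, 20 min at 4 °C) after 20 h anti-TCR (C305, 500 ng/ml) stimulation at 37 °C.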

[2] = tested on: cultured human mast cells (CHMC); assay: CHMC low cell density IgE activation: tryptase assay; format: cell-based
Outline: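 Degranulation is read as supernatant tryptase activity, using tryptase substrate incubated 30 min at room temperature. Before this, CHMC at low density (1000-1500 cells/well) rest 1 hr at 37° C and are triggered with anti-IgE for 30 min at 37° C.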

[3] = tested on: cultured human mast cells (CHMC); assay: CHMC low cell density ionomycin activation: tryptase assay; format: cell-based
[4] = low cell density, read-out: CHMC anti-IgE Tryptase
[5] = Low Density CHMC, anti-IgE activation, tryptase release, read-out: CHMC anti-IgE Tryptase IC50
[6] = Low Density CHMC, ionomycin activation, tryptase release, read-out: CHMC Ionomycin Tryptase IC50
[7] = Low Density, read-out: CHMC anti-IgE Tryptase
[8] = Low Density, read-out: CHMC Ionomycin Tryptase
[9] = Homo sapiens, Mast cell, Low Density, read-out: CHMC anti-IgE Tryptase
[10] = Homo sapiens, Mast cell, Low Density, read-out: CHMC Ionomycin Tryptase

IC50 (Syk kinase) | IC50 [1] | SMILES | other results
0.11 µM | 1.6 µM | Cn1ncc2cc(Nc3ncc(F)c(Nc4ccc5c(c4)OCCO5)n3)ccc21 [Compound R935193] | 
4440 µM |  | Cc1cc(C)cc(Nc2ncc(F)c(Nc3ccc4c(n3)NC(=O)CO4)n2)c1 [Compound R945432] | IC50 [2, 4]: 0.049 µM
0.087 µM |  | COc1ccc(Nc2ncc(F)c(Nc3ccc4c(n3)NC(=O)CO4)n2)cc1OC [Compound R945422] | 
> 10 µM | > 10 µM | CCOC(=O)COc1cccc(Nc2ncc(C(=O)OCC)c(Nc3ccc4c(c3)OCCO4)n2)c1 [Compound R926797] | 
0.222 µM |  | Cc1cccc(C)c1Nc1ncc(F)c(Nc2cccc(N)n2)n1 [Compound R927078] | IC50 [2, 4]: 0.245 µM
> 10 µM |  | COc1ccc(Nc2ncc(F)c(Nc3ccc4c(n3)NC(=O)C(C)(C)O4)n2)cc1F [Compound R940384] | IC50 [2, 4]: 1.32 µM
> 10 µM |  | CC1(C)Oc2ccc(Nc3nc(Nc4ccc(Cl)c(Cl)c4)ncc3F)nc2NC1=O [Compound R940373] | 
0.022 µM | 0.302 µM | CNC(=O)COc1cccc(Nc2ncc(F)c(Nc3ccc4c(c3)NC(=O)CO4)n2)c1 [Compound R908701] | 
0.107 µM | 2.16 µM | COc1cc(Nc2ncc(F)c(Nc3cccc(O)c3)n2)cc(OC)c1 [Compound R926780] | 
3.05 µM |  | COC(=O)C1Cc2cc(Nc3ncc(F)c(Nc4ccc(OC(F)(F)F)c(Cl)c4)n3)ccc2O1 (stereo not drawn) [Compound R926953] | 
0.25 µM |  | CC1(C)Oc2ccc(Nc3nc(Nc4ccc5c(c4)NC(=O)C(F)(F)O5)ncc3F)cc2NC1=O [Compound R940351] | 
0.929 µM | 2.37 µM | O=C(c1cc2cc(Nc3ncc(F)c(Nc4cccc(O)c4)n3)ccc2o1)N1CCNCC1 [Compound R926500] | 
1.76 µM |  | COc1c(C)cc(Nc2nc(Nc3cccc(OCCN4CCNCC4)c3)ncc2F)cc1C [Compound R945157] | 
> 10 µM |  | Oc1cccc(Nc2ncc(F)c(Nc3ccc(Cl)cn3)n2)c1 [Compound R927020] | 
0.38 µM | 4.18 µM | Fc1cnc(Nc2ccc3[nH]ncc3c2)nc1Nc1ccc(OC(F)(F)F)c(Cl)c1 [Compound R935366] | 
0.325 µM | 20.7 µM | COC(=O)c1cc2cc(Nc3ncc(F)c(Nc4ccc5c(c4)NC(=O)C(F)(F)O5)n3)ccc2o1 [Compound R940353] | 
0.033 µM | 0.363 µM | CNC(=O)COc1cccc(Nc2ncc(F)c(Nc3ccc4c(c3)C(O)CCO4)n2)c1 (stereo not drawn) [Compound R950349] | 
 | > 10 µM | COC(=O)c1cc2cc(Nc3ncc(F)c(Nc4ccc(C(C)(C)C)cc4)n3)ccc2o1 [Compound R926477] | IC50 [2, 5]: 0.27 µM; IC50 [3, 6]: > 10 µM
> 10 µM |  | CCOc1ccc(Nc2ncc(F)c(Nc3ccc4c(n3)NC(=O)CO4)n2)cc1 [Compound R945407] | 
 | > 10 µM | Clc1nc(Nc2ccc3c(c2)OCCO3)nc(Nc2ccc3c(c2)OCCO3)c1Cl [Compound R926467] | IC50 [2, 5]: 1.18 µM; IC50 [3, 6]: 8.8 µM
0.029 µM |  | CC1(C)Oc2ccc(Nc3nc(Nc4ccc5cn[nH]c5c4)ncc3F)nc2NC1=O [Compound R940380] | 
0.024 µM |  | Oc1c(Cl)cc(Nc2ncc(F)c(Nc3ccc4c(c3)OCCO4)n2)cc1Cl [Compound R926763] | IC50 ([1]; Homo sapiens, Jurkat): 3.72 µM
 | > 10 µM | CCOC(=O)c1ncn2c1COc1c(Nc3ncc(F)c(Nc4cccc(O)c4)n3)cccc1-2 [Compound R909267] | IC50 [2, 7]: 0.589 µM; IC50 [3, 8]: > 10 µM
0.022 µM | 1.06 µM | CNC(=O)COc1cccc(Nc2ncc(F)c(Nc3ccc4c(n3)NCCO4)n2)c1 [Compound R945299] | 
> 10 µM |  | CC(C)c1cccc(Nc2ncc(F)c(Nc3ccc4c(n3)NC(=O)CO4)n2)c1 [Compound R945434] | 
0.354 µM | 0.736 µM | Fc1cnc(Nc2ccc3[nH]ncc3c2)nc1Nc1ccc2[nH]ncc2c1 [Compound R935189] | 
2.35 µM |  | Cc1ccc(Nc2nc(Nc3cccc(O)c3)ncc2F)nc1 [Compound R927017] | IC50 ([1]; Homo sapiens, Jurkat): 8.16 µM

The next lines start with the compound.

SMILES | IC50 (Syk kinase) | IC50 [1] | other results
CCOC(=O)c1cnc(Nc2ccc3c(c2)OCCO3)nc1Nc1ccc2c(c1)OCCO2 [Compound R926252] | > 10 µM |  | IC50 ([1]; Homo sapiens, Jurkat): > 10 µM
CNC(=O)COc1cccc(Nc2ncc(F)c(Nc3ccc4c(c3)C(O)CCC4)n2)c1 (racemic) [Compound R926949] | 0.076 µM |  | 
Cn1ncc2ccc(Nc3ncc(F)c(Nc4ccc5c(n4)NC(=O)C(C)(C)O5)n3)cc21 [Compound R940389] | 0.053 µM |  | IC50 [2, 4]: 0.06 µM
O=C1COc2ccc(Nc3nc(Nc4ccc5c(c4)OCCO5)ncc3F)nc2N1 [Compound R945405] | 0.168 µM |  | IC50 [2, 4]: 0.131 µM
CC1(C)Oc2ccc(Nc3nc(Nc4ccc(N5CCOCC5)cc4)ncc3F)nc2NC1=O [Compound R945423] | 0.273 µM |  | IC50 [2, 4]: 0.145 µM
Cc1cnc(Nc2ccc3c(c2)OCCO3)nc1Nc1ccc2c(c1)OCCO2 [Compound R926242] | 1.81 µM |  | IC50 ([1]; Homo sapiens, Jurkat): 3.82 µM
CNC(=O)COc1cccc(Nc2ncc(F)c(Nc3ccc4c(c3)NC(C)(C)CO4)n2)c1 [Compound R909309] | 0.09 µM |  | 
CNC(=O)COc1cccc(Nc2ncc(F)c(Nc3ccc4c(c3)OCCCO4)n2)c1 [Compound R935202] | 0.035 µM | 1.94 µM | 
CC1(C)Oc2ccc(Nc3nc(Nc4cccc(C(C)(C)C)c4)ncc3F)nc2NC1=O [Compound R940381] | 5000 µM |  | 
CNC(=O)COc1cccc(Nc2ncc(F)c(Nc3cc(C)ccn3)n2)c1 [Compound R927016] | 0.954 µM | 7.16 µM | 
CCOC(=O)c1cnc(Nc2ccc(OCC(=O)N3CCCC3)cc2)nc1Nc1ccc(OCC(=O)N2CCCC2)cc1 [Compound R926562] | > 10 µM | 1.25 µM | 
COC(=O)C(Nc1ncc(C#N)c(NC(C(=O)OC)c2ccccc2)n1)c1ccccc1 (stereo not drawn) [Compound R925819] |  | > 10 µM | IC50 [2, 5]: > 10 µM; IC50 [3, 6]: > 10 µM
OCCOc1cccc(Nc2ncc(F)c(Nc3ccc4c(c3)OCCCO4)n2)c1 [Compound R935186] |  | 1.09 µM | IC50 [2, 7]: 0.211 µM; IC50 [3, 8]: > 10 µM
CNC(=O)COc1cccc(Nc2ncc(F)c(Nc3ccc(Cl)c(OC)c3)n2)c1 [Compound R927042] | 0.051 µM |  | 
CC(C)c1ccc(Nc2ncc(F)c(Nc3cccc(O)c3)n2)cc1 [Compound R926778] |  | > 10 µM | IC50 [2, 5]: 0.414 µM; IC50 [3, 6]: > 10 µM
CCOC(=O)COc1cccc(Nc2ncc(C(=O)OCC)c(Nc3cccc(O)c3)n2)c1 [Compound R926798] | > 10 µM | > 10 µM | 

SMILES | IC50 (Syk kinase) | IC50 [1] | other results
CN1C(=O)COc2ccc(Nc3ncc(F)c(Nc4cccc(O)c4)n3)cc21 [Compound R908703] |  | 1.4 µM | IC50 [2, 7]: 0.63 µM; IC50 [3, 8]: > 10 µM
Fc1cnc(Cl)nc1Nc1ccc2c(c1)CN(c1nc(Cl)ncc1F)CC2 [Compound R926910] |  |  | IC50 [2, 9]: > 10 µM; IC50 [3, 10]: > 10 µM; IC50 ([1]; Homo sapiens, Jurkat): > 10 µM
O=C(O)CNc1cccc(Nc2ncc(F)c(Nc3cccc(OCCO)c3)n2)c1 [Compound R950230] |  | 8.23 µM | IC50 [2, 7]: 7.91 µM; IC50 [3, 8]: > 10 µM
CCOC(=O)c1cnc(Nc2cccc3cn[nH]c23)nc1Nc1cccc2cn[nH]c12 [Compound R926321] | 5050 µM | 1.29 µM | 
COc1cc(Nc2nc(Nc3cccc(OCCO)c3)ncc2F)cc(OC)c1 [Compound R935181] |  | 8.98 µM | IC50 [2, 7]: 1.76 µM; IC50 [3, 8]: > 10 µM
Oc1cccc(Nc2ncc(F)c(NC(c3ccc(Cl)cc3)c3ccc(Cl)cc3)n2)c1 [Compound R935019] |  | > 10 µM | IC50 [2, 7]: 8.8 µM; IC50 [3, 8]: > 10 µM
CN(C)CCOc1ccc(Nc2ncc(F)c(Nc3cccc(O)c3)n2)cc1 [Compound R909236] | 2.07 µM | > 10 µM | Syk kinase catalyzed phosphorylation of a peptide substrate, IC50s (Syk kinase): micromolar range
Cn1ncc2cc(Nc3ncc(F)c(Nc4ccc(Cl)nc4)n3)ccc21 [Compound R935375] | 2.8 µM |  | 
Fc1cnc(Cl)nc1Nc1ccc2c(c1)CNCC2 [Compound R926912] |  |  | IC50 ([2]; Homo sapiens, Mast cell, read-out: CHMC anti-IgE Tryptase): > 10 µM; IC50 [3, 10]: > 10 µM; IC50 ([1]; Homo sapiens): > 10 µM
Cc1ccc(-c2ccccc2)cc1Nc1ncc(Br)c(Nc2cc(-c3ccccc3)ccc2C)n1 [Compound R925800] |  | > 10 µM | IC50 [2, 5]: > 10 µM; IC50 [3, 6]: > 10 µM
CC(C)(C)C(=O)Nc1cccc(Nc2ncc(F)c(Nc3cccc(O)c3)n2)c1 [Compound R940275] |  | 16.4 µM | IC50 [2, 7]: 0.862 µM; IC50 [3, 8]: > 10 µM
Fc1cnc(Cl)nc1Nc1cccc(-c2nnn[nH]2)c1 [Compound R926853] |  |  | IC50 [2, 9]: > 10 µM; IC50 [3, 10]: > 10 µM; IC50 ([1]; Homo sapiens, Jurkat): > 10 µM
COC(=O)[C@H](Cc1ccc(O)cc1)Nc1nc(N(C)C)ncc1F [Compound R940110] |  | > 10 µM | IC50 [2, 7]: > 10 µM; IC50 [3, 8]: > 10 µM
COc1ccc(Nc2ncc(F)c(Nc3ccc(OC)c(Cl)c3)n2)cc1Cl [Compound R926946] | 10.2 µM |  | IC50 ([1]; Homo sapiens, Jurkat): 9.4 µM
O=C1COc2ccc(Nc3nc(Nc4cccc(O)c4)ncc3F)cc2N1 [Compound R908702] |  | 0.37 µM | IC50 [2, 7]: 0.104 µM; IC50 [3, 8]: 7.4 µM
CCOC(=O)CCn1ncc2ccc(Nc3ncc(F)c(Nc4ccc(OC(C)C)cc4)n3)cc21 [Compound R935289] |  | 5.34 µM | IC50 [2, 7]: 1.69 µM; IC50 [3, 8]: > 10 µM
